Test system: neonatal cardiomyocytes
Assay: Intracellular Ca2+ measurements (fura 2) and cell shortening detection
Assay type: cell-based, rats
Details: maximal isoproterenol stimulation; uninfected and Ad.RSV.PL-infected (10 pfu/cell) cardiomyocytes, 1 Hz
Experimental: Spontaneously beating cardiomyocytes were prepared from 1 to 2 day old rats and cultured in P-10 medium (GIBCO,BRL) in the presence of 5% fetal calf serum and 10% horse serum for 3 days as described previously in Kang J.X. et al., Proc. Natl. Acad. Sci. U.S.A., 1995, 92:[…] and Kang J.X. and Leaf A., Euro. J. Pharmacol., 1996, 297:97-106, the contents of which are incorporated herein by reference. Measurements of cell shortening and cytosolic Ca^2+ were performed on neonatal cardiomyocytes cultured on round, coated, glass coverslips (0.1 mm thickness, 31 mm diameter) in 35 mm culture dishes. Cells were counted using a hemocytometer. Approximately 5x10^5 cells were plated in each coverslip.
Measurements of intracellular Ca^2+ and cell shortening were performed as described earlier in Hajjar et al. (1997), Kang et al. (1995) and Kang et al (1996), the contents of which are incorporated herein by reference. […] A dual excitation spectrofluorometer (IONOPTIX) was used to record fluorescence emissions (505 nm) elicited from exciting wavelengths of 360 and 380 nm. […] High-contrast microspheres attached to the cell surface of the cardiomyocytes were imaged using a charge-coupled device video camera attached to the microscope, and motion along a selected raster line segment who quantified by a video motion detector system (IONOPTIX).

CC(C)NCC(O)c1ccc(O)c(O)c1 (stereo not shown) [isoproterenol]
time course of the Ca^2+ transients: decreased to the same level

From patent EP1374909A2, “Evaluation of, delivery of, and use of agents to treat heart disorders” (THE GENERAL HOSPITAL CORPORATION, priority 1997, dated 1999)
